# Results published in paper PMC3454376, “Salidroside Improves Behavioral and Histological Outcomes and Reduces Apoptosis via PI3K/Akt Signaling after Experimental Traumatic Brain Injury” (PLoS ONE, 2012).
# Tests used:
# p-Akt Ser473 = assay: Western blot, injured cortex; type: in vivo, mice; conditions: for p-Akt Ser473 level, % of the vehicle level: 20 mg/kg ip 10 min after CCI
# Protocol: (§1) Mice were anesthetized and positioned in a stereotaxic frame. LY294002 (200 nM in 0.5 µL of saline) or equal amount of physiological saline was intracerebroventricularly (icv) injected at 30 min before CCI as previously described. A 1 mm cranial burr hole was drilled into the skull. A 30-gauge needle on a Hamilton syringe was implanted into the lateral ventricle using stereotactic coordinates: 1.5 mm posterior to bregma and 1.0 mm right lateral to the midline, 2 mm in depth. LY294002 or saline was infused into the brain at a rate of 0.05 µL/min over 10 min with an infusion pump (KDS 310, KD Scientific Inc., Holliston, MA, USA), and the needle was left in place for an additional 20 min to prevent reflux. After the needle was removed, CCI procedure was conducted immediately. Sham-operated mice were infused icv with saline, but were not subjected to CCI.
# (§2) Three sets of experiments were performed. The first set was to investigate the protective effects of salidroside. All animals were randomized into 1 of 3 groups (sham injury, CCI + vehicle, CCI + SALD 20). Surgery/injury, behavioral testing, and tissue analyses were performed by different individuals. Behavioral testing and tissue analyses were performed by individuals blinded to the treatment group. Salidroside (Cayman Chemical, Ann Arbor, MI, USA) dissolved in normal saline (0.25 mL) or a corresponding volume of vehicle (saline) was administered intraperitoneally 10 min following injury. Testing after injury was completed as follows: 1) behavioral testing at days 1, 4, 7, 14, 21, and 28 (n = 8–10 mice/group); 2) cresyl violet staining at day 28 (n = 9 mice/group); 3) histology, determination of brain water content, and western blot analysis at day 1 or 3 (n = 5–6 mice/group). To determine the optimal dose of salidroside, a pilot study was performed using 2 different doses (20 and 50 mg/kg) administered 10 min after injury, and neurological deficits and tissue damage were evaluated as the main outcomes. […] The second set of experiment was to assess the effect of the inhibition of PI3K/Akt with the specific PI3K inhibitor, LY294002 (Cell Signaling Technology, Danvers, MA, USA), on salidroside effects. Animals were randomized into 4 groups. Mice received either: 1) icv pretreatment of LY294002 followed by SALD 20 after CCI (S20Y group); or 2) icv pretreatment of saline (vehicle control) followed by SALD 20 after CCI (S20V group). 3) Mice were infused icv with saline and were subjected to sham injury. 4) Mice were infused icv with LY294002 and were subjected to sham injury. Testing after injury was completed as follows: 1) cresyl violet staining at day 28 (n = 6 mice/group); 2) western blot analysis at day 1 (n = 6 mice/group). The third set of experiment was performed to examine the neuroprotective time window afforded by salidroside. Mice received intraperitoneal SALD 20 or vehicle (saline) at 3 or 6 h following CCI and were sacrificed 1 day later for FJB staining and western blot analysis (n = 6 mice/group).
# (§3) Brains of injured or sham animals were collected 1 day and 3 days post CCI or sham surgery, and a 4 mm coronal section from the injured area over the parietal cortex and ipsilateral hippocampus were collected. The protein samples were obtained from tissue homogenates in 300 µL of ice-cold reagent (T-PER reagent; Pierce Biotechnology, Rockford, IL, USA) with a complete mini protease inhibitor cocktail (Roche Molecular Biochemicals) centrifuged at 14000g for 30 min. Protein concentration was determined by Bradford reagent spectrophotometrically at A595. Equal amounts of protein samples were denatured in gel-loading buffer at 100°C for 5 min, and then loaded onto sodium dodecyl sulfate-polyacrylamide gels to be separated. Separated proteins were transferred to Immobilon-P membranes (Millipore, Billerica, MA, USA), blocked with the use of 5% milk in PBST and probed with primary antibodies. […]
# p-FOXO1 = assay: Western blot, injured cortex; type: in vivo, mice; conditions: 20 mg/kg ip 10 min after CCI; days 1 and 3; P>0.05
# Protocol: as §1, §2, §3
# p-Bad = assay: Western blot, injured cortex; type: in vivo, mice; conditions: 20 mg/kg ip 10 min after CCI; days 1 and 3; P>0.05
# Protocol: as §1, §2, §3
# p-Akt Thr308 = assay: Western blot, injured cortex; type: in vivo, mice
# Protocol: as §1, §2, §3
# Body weight after CCI = type: in vivo, mice; conditions: P>0.05
# [1] = system: primary cultured cortical neurons; assay: MTT cell viability after in vitro neuronal stretch injury; type: cell-based, C57BL/6 mice; conditions: added immediately after injury, MTT at 24 h, stretch alone 61.8±1.5%
# Protocol: All culture medium supplies were from Invitrogen (Invitrogen, Carlsbad, CA, USA). Cortical neuronal cells were prepared from embryonic day 15.5 C57BL/6 mice and cultured in serum-free conditions as previously described. Briefly, the cortices were isolated and digested in 0.5 mg/mL papain at 37°C for 15 min, followed by dissociation in Hibernate-A medium (containing B27 supplement) by aspirating trituration. The cells were then plated onto poly-L-lysine-coated 6-well silastic culture plates (Flexcell International Corporation, Hillsborough, NC, USA) at a density of 5×10^4 cells/cm^2 and maintained in Neurobasal medium supplemented with B27, 10 units/mL penicillin, […], and 0.5 mg/mL glutamine. Four days after plating, 50% of the medium was removed and replaced with fresh medium. The cells were cultured at 37°C in a humidified tri-gas incubator (5%O2, 90% N2, and 5% CO2) and were used at day 10 in vitro. The cortical cultures contain mostly neurons and there were <2% of glia cells, as determined by immunohistochemical staining.
# Cultures were stretched by rapid deformation of the silastic culture plates (Flexplates), using the Cell Injury Controller II (Custom Design and Fabrication; Virginia Commonwealth University, Richmond, VA, USA) as previously described. This device uses a regulated flow of compressed gas to rapidly pressurize cells cultured on flexible substrates, causing a radial stretch injury. […] This stimulus intensity corresponds to the “moderate stretch” [62]. The primary cultured neurons were treated with 0.1, 1, 10, 20, and 50 µM salidroside, respectively, immediately following injury. The cortical neurons cultured in plain medium served as control. Cell viability analysis was performed 24 h after injury.
# The cell viability was determined by assessing the degree of MTT reduction. Briefly, cells were incubated at 37°C for 2 h with MTT (0.5 mg/mL final concentration; Sigma-Aldrich; St. Louis, MO, USA). Afterwards, a solution of anhydrous isopropanol, HCl (0.1 N), and 0.1% Triton X-100 was added for the dissolution of formazan crystal. The optical density was determined at 570 nm using a microplate reader. Cell viability was expressed as a percentage of the control culture. The experiments were repeated 4 times with different batches of primary cultures.
# [2] = 20 mg/kg ip 10 min after injury, day 1
compound,measurement,setting,value
"OC[C@H]1O[C@@H](OCCc2ccc(O)cc2)[C@H](O)[C@@H](O)[C@@H]1O [SALD, salidroside]","p-Akt Ser473 level, % of the vehicle level","p-Akt Ser473; day 1, P<0.05",200.7%
same,"p-Akt Ser473 level, % of the vehicle level","p-Akt Ser473; day 3, P>0.05",146.9%
same,increase of p-Akt Ser473 level,p-Akt Ser473; [2],100.7%
same,change of p-Akt Ser473 level (attenuated by),"p-Akt Ser473; 20 mg/kg ip 3 h after injury, day 1",46.2%
same,p-FOXO1 level versus vehicle group,p-FOXO1,no difference
same,p-Bad level versus vehicle group,p-Bad,no difference
same,"p-Akt Thr308 level, % of the vehicle level","p-Akt Thr308; 20 mg/kg ip 10 min after CCI, day 3, P<0.05",176.0%
same,increase of p-Akt Thr308 level,p-Akt Thr308; [2],30.3%
same,change of p-Akt Thr308 level (attenuated by),"p-Akt Thr308; 20 mg/kg ip 3 h after injury, day 1, not significant",19.5%
same,body weight versus vehicle,Body weight after CCI; 20 mg/kg ip after CCI,No significant difference
same,body weight versus vehicle,Body weight after CCI; 50 mg/kg ip after CCI,No significant difference
same,cell survival after stretch injury (relative to control),"[1]; 0.1 µM, P>0.05",65.3±1.3%
same,cell survival after stretch injury (relative to control),"[1]; 1 µM, P<0.001",72.5±1.6%
same,cell survival after stretch injury (relative to control),"[1]; 10 µM, P<0.001",90.9±1.4%
same,cell survival after stretch injury (relative to control),"[1]; 20 µM, P<0.001",91.4±1.4%
same,cell survival after stretch injury (relative to control),"[1]; 50 µM, P<0.001",90.5±1.4%
